Laboratory results reported in patent publication US10787434B2, “Benzopiperdine derivatives and their use in the treatment of cancer and hemoglobinopathies” (CTXT PTY LTD, priority 2016, dated 2020).
Structures can show the parent of a compound that is named as a salt.

How the values were obtained:
[1] = test system: symmetrical dimethylation of arginine (Di-Methyl Histone H4 Arginine 3) in cell line TE11; assay: PRMT5 Biomarker Assay; type: cell-based; conditions: Homo sapiens, TE-11; TE11 cells, 72 hours incubation, mean Alexa647-related intensity per cell
Procedure: PRMT5 Biomarker Assay Compounds of the invention may be tested for potency to inhibit symmetrical dimethylation of arginine in the following assay: The cell line TE11 was seeded at a density of 6,000 cells per well in 96 well optical quality tissue culture plates in DME medium and 10% foetal bovine serum, and allowed to adhere for 5 hours under standard culture conditions (37 degree Celsius, 5% CO2). Compound dilutions prepared in DMSO were added to the medium, with negative control wells reserved for treatment with DMSO only and maximum inhibition controls receiving a potent PRMT5 inhibitor compound at 1 μM concentration. After incubation for 72 hours, the cells were fixed with 3.7% formaldehyde in PBS for 30 minutes at room temperature, washed with phosphate buffer saline and blocked with Odyssey blocking buffer (LI-COR, Lincoln, Nebr.). Rabbit anti-Di-Methyl Histone H4 Arginine 3 specific antibody (Epigentek) in Odyssey blocking buffer was added and incubated for 14 hours at 4 degree Celsius. After washing, anti-rabbit secondary antibody labelled with Alexa647 dye (LifeTechnologies) and Hoechst 33342 (1 μg/mL, SigmaAldrich) were added for 1 hour incubation. Plates were washed and read on a PerkinElmer Envision 2103 in fluorescence intensity scanning mode (24 scans across the well area). The plates were imaged on a PerkinElmer Phenix high content imaging platform. Using a Columbus image analysis pipeline, individual nuclei were located by Hoechst 33342 stain and the methylation level was calculated from the Alexa647-related intensity in the same area. IC50 values were obtained from the mean Alexa647-related intensity per cell by calculating percent inhibition (%1) for each well relative to controls on the same plate (% l=(1-CN)/(CP−CN) where CN/CP are the averages of the negative/maximum inhibition controls, respectively), then fitting the %1 data vs. compound concentration [I] to % I=(A+((B−A)/(1+((C/[I])^D)))) where A is the lower asymptote, B is the upper asymptote, C is the IC50 value, and D is the slope.

[2] = target: Full-length PRMT5 enzyme co-expressed with His6-MEP50 (Homo sapiens (Human), UniProt O14744); assay: PRMT5 Biochemical Assay; conditions: Transcreener EPIGEN methyltransferase assay, histone H4 derived peptide substrate, 4 hours at 37 degree Celsius
Sequence of Full-length PRMT5 enzyme co-expressed with His6-MEP50 (O14744 whole entry): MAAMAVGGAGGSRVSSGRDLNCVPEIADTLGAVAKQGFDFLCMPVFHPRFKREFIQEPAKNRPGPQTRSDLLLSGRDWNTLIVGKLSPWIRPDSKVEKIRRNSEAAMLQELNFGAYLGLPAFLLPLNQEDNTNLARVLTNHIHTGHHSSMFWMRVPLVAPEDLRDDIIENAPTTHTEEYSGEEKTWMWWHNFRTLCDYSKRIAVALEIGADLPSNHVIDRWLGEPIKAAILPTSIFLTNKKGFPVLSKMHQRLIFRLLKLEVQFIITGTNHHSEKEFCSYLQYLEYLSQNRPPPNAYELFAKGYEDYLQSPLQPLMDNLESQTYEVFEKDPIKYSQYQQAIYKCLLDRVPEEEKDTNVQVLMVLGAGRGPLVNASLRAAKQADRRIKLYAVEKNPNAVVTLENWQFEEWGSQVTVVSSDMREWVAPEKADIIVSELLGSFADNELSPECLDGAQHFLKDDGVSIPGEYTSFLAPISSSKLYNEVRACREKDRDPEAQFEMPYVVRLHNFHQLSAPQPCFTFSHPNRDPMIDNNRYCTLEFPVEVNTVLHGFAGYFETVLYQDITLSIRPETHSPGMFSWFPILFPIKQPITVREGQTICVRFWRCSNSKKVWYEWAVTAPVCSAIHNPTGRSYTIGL
Sequence of Full-length PRMT5 enzyme co-expressed with His6-MEP50 (Q9BQA1 whole entry partner): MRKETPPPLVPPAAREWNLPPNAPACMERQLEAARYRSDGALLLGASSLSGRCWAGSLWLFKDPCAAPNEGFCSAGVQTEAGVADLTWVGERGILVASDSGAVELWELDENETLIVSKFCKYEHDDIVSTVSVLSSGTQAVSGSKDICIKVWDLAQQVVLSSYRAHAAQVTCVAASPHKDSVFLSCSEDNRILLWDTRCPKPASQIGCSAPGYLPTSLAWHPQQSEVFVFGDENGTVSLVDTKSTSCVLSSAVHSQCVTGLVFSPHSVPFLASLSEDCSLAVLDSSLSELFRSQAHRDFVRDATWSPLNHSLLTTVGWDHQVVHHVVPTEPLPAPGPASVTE
Procedure: Compounds of the invention may be tested for in vitro activity in the following assay:
A histone H4 derived peptide is used as substrate (amino acid sequence: […]NH2). Full-length PRMT5 enzyme (NCBI Reference sequence NP_006100.2) was co-expressed with His6-MEP50 in insect cells and purified via Nickel immobilized metal affinity and gel filtration chromatography (“the enzyme”).
The 6 μL reactions are run in Greiner brand black 384-well low volume assay plates. All reactions contained assay buffer (phosphate buffered saline, 0.01% (v/v) Tween-20, 0.01% (w/v) albumin from chicken egg white, 1 mM Dithiothreitol, 1 μM peptide substrate, 1 μM S-Adenosyl methionine, and 15 ng/reaction enzyme, with the enzyme being omitted from negative control reactions. Compounds were added in a volume of 100 nL from dilution series prepared in DMSO, positive and negative control reactions receiving the same volume DMSO without compound. The plates were sealed with adhesive seals and incubated for 4 hours at 37 degree Celsius. Reaction progress was measured using the Transcreener™ EPIGEN methyltransferase assay (BellBrook Labs, Madison, Wis.) as recommended by the manufacturer. To each reaction 2 μL detection mix were added, containing coupling enzymes, fluorescence polarisation tracer, and AMP antibody. Plates were incubated for 90 minutes before being read on a PerkinElmer EnVision™ plate reader in fluorescence polarisation mode. IC50 values were obtained from the raw readings by calculating percent inhibition (%1) for each reaction relative to controls on the same plate (% I=(I−CN)/(CP−CN) where CN/CP are the averages of the negative/positive reactions, respectively), then fitting the %1 data vs. compound concentration [I] to % I=(A+((B−A)/(1+((C/[I])^D)))) where A is the lower asymptote, B is the upper asymptote, C is the IC50 value, and D is the slope.

Compound | IC50 [1] [nM] | IC50 [2] [nM]
CC(=O)N1CCC(Oc2nccc(C(=O)NC[C@@H](O)[C@@H]3Cc4ccccc4CN3)c2Cl)CC1 [Example 5, 2-((1-Acetylpiperidin-4-yl)oxy)-3-chloro-N-((R)-2-hydroxy-2-((S)-1,2,3,4-tetrahydroisoquinolin-3-yl)ethyl)isonicotinamide dihydrochloride] | 6 | 26
CCOc1nc(N2CCC(O)CC2)ccc1C(=O)NC[C@@H](O)[C@@H]1Cc2ccccc2CN1 [Example 2, 2-Ethoxy-N-((R)-2-hydroxy-2-((S)-1,2,3,4-tetrahydroisoquinolin-3-yl)ethyl)-6-(4-hydroxypiperidin-1-yl)nicotinamide dihydrochloride] | 23.3 | 102
CCOc1nc(N2CCN(C(C)=O)CC2)ccc1C(=O)NC[C@@H](O)[C@@H]1Cc2ccccc2CN1 [Example 4, 6-(4-Acetylpiperazin-1-yl)-2-ethoxy-N-((R)-2-hydroxy-2-((S)-1,2,3,4-tetrahydroisoquinolin-3-yl)ethyl)nicotinamide dihydrochloride] | 1.3 | 26
CCOc1cnc(CC2CCN(C(C)=O)CC2)cc1C(=O)NC[C@@H](O)[C@@H]1Cc2ccccc2CN1 [Example 6, 2-((1-acetylpiperidin-4-yl)methyl)-5-ethoxy-N-((R)-2-hydroxy-2-((S)-1,2,3,4-tetrahydroisoquinolin-3-yl)ethyl)isonicotinamide dihydrochloride] | 75.4 | 202

Further compounds by falling IC50 [1], results first:

IC50 [1] [nM] | IC50 [2] [nM] | Compound
112 | 135 | CCOc1c(C(=O)NC[C@@H](O)[C@@H]2Cc3ccccc3CN2)ccnc1NC1CCN(C(C)=O)CC1 [Example 8, 2-((1-Acetylpiperidin-4-yl)amino)-3-ethoxy-N—((R)-2-hydroxy-2-((S)-1,2,3,4-tetrahydroisoquinolin-3-yl)ethyl)isonicotinamide Dihydrochloride Salt]
31.5 | 251 | CCOc1nc(N2CCOCC2)ccc1C(=O)NC[C@@H](O)[C@@H]1Cc2ccccc2CN1 [Example 9, 2-Ethoxy-N—((R)-2-hydroxy-2-((S)-1,2,3,4-tetrahydroisoquinolin-3-yl)ethyl)-6-morpholinonicotinamide]
16.5 | 135 | CCOc1nc(OC2CCN(C(C)=O)CC2)ccc1C(=O)NC[C@@H](O)[C@@H]1Cc2ccccc2CN1 [Example 7, 6-((1-acetylpiperidin-4-yl)oxy)-2-ethoxy-N-((R)-2-hydroxy-2-((S)-1,2,3,4-tetrahydroisoquinolin-3-yl)ethyl)nicotinamide hydrochloride salt]
5.6 | 70 | CCOc1nc(N2CCCOCC2)ccc1C(=O)NC[C@@H](O)[C@@H]1Cc2ccccc2CN1 [Example 3, 2-Ethoxy-N-((R)-2-hydroxy-2-((S)-1,2,3,4-tetrahydroisoquinolin-3-yl)ethyl)-6-(1,4-oxazepan-4-yl)nicotinamide dihydrochloride]
0.2 | 37 | CCOc1nc(N2CCN(C(=O)OC)CC2)ccc1C(=O)NC[C@@H](O)[C@@H]1Cc2ccccc2CN1 [Example 1, Methyl 4-(6-ethoxy-5-(((R)-2-hydroxy-2-((S)-1,2,3,4-tetrahydroisoquinolin-3-yl)ethyl)carbamoyl)pyridin-2-yl)piperazine-1-carboxylate dihydrochloride]
